Laboratory results from patent US20250026769A1, “PAPD5 INHIBITORS AND METHODS OF USE THEREOF” (The Children's Medical Center Corporation, priority 2021, published 2025).

Target: T1, rPAPD5 (Homo sapiens, UniProt Q8NDF8)
T1 construct: made in house
Experiment: differential scanning fluorimetry (DSF) binding and stabilization of rPAPD5
Conditions: shift vs DMSO control; for ΔTm at 100 µM: 100 μM test compound, read-out: ΔTm at 100 μM
Protocol: Binding and stabilization of rPAPD5 by test compounds was determined using differential scanning fluorimetry (DSF). DSF assays were performed to determine protein melting temperature using an indicator dye SYPRO orange (Thermo Fisher Scientific, S6651) diluted 1:5000 in […] of buffer containing […], […] (Jena Biosciences), 25 mM Tris-HCl, 5 mM MgCl2, 50 mM KCl. […] DMSO was used as a negative control. Each curve was an average of three measurements and Thermal Shift software (Thermo Fisher Scientific, 4466038) was used for analysis. […] The change in melting temperature (ΔTm) is in reference to the DMSO control. Referring to Table 2, “+” refers to ΔTm values below 1° C., “++” refers to ΔTm values from 1 to 5° C., and “+++” refers to ΔTm values above 5° C.

T1 sequence (Q8NDF8 68-698 isoform Q8NDF8-5 limits assumed): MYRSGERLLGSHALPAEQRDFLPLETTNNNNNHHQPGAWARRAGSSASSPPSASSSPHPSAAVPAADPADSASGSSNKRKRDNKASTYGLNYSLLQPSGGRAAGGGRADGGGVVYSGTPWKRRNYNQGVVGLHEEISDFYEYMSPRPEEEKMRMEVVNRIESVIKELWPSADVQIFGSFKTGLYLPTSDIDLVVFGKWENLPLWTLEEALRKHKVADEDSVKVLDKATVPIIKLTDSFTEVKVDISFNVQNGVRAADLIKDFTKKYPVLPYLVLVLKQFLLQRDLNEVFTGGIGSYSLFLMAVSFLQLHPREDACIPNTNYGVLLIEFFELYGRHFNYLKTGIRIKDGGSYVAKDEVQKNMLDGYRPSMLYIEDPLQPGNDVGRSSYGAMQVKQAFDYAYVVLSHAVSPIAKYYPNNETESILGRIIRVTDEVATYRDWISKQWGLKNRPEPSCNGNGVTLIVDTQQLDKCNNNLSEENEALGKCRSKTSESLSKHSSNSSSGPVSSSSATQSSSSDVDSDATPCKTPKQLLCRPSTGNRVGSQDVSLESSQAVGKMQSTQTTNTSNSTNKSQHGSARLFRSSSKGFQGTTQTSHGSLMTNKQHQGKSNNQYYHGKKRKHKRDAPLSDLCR

Row | ΔTm at 100 µM | ΔTm at 10 µM (10 μM test compound, read-out: ΔTm (Table 2, starred: the compound was tested at 10 μM)) | Compound
1 | 1 to 5 °C |  | O=C(O)c1ccccc1Nc1c(S(=O)(=O)N2CCOCC2)cnc2ccc(-c3cnn4cccnc34)cc12 [Compound 149A]
2 | > 5 °C |  | Cn1cc(-c2ccc3ncc(S(=O)(=O)N4CCOCC4)c(Nc4ccccc4C(=O)O)c3c2)ccc1=O [Compound 150A]
3 | 1 to 5 °C |  | C/N=c1/ccc(-c2ccc3ncc(S(=O)(=O)N4CCOCC4)c(Nc4ccccc4C(=O)O)c3c2)c[nH]1 [Compound 151A]
4 | 1 to 5 °C |  | CN(C)c1cncc(-c2ccc3ncc(S(=O)(=O)N4CCOCC4)c(Nc4ccccc4C(=O)O)c3c2)c1 [Compound 152A, 2-[[6-[5-(dimethylamino)-3-pyridyl]-3-morpholinosulfonyl-4-quinolyl]amino]benzoic acid]
5 | 1 to 5 °C |  | O=C(O)c1ccccc1Nc1c(S(=O)(=O)N2CCOCC2)cnc2ccc(-c3cncc(C4CC4)c3)cc12 [Compound 153A, 2-[[6-(5-cyclopropyl-3-pyridyl)-3-morpholinosulfonyl-4-quinolyl]amino]benzoic acid]
6 | > 5 °C |  | O=C(O)c1ccccc1Nc1c(S(=O)(=O)N2CCOCC2)cnc2ccc(-c3cncnc3)cc12 [Compound 154A, 2-[(3-morpholinosulfonyl-6-pyrimidin-5-yl-4-quinolyl)amino]benzoic acid]
7 | 1 to 5 °C |  | O=C(O)c1ccccc1Nc1c(S(=O)(=O)N2CCOCC2)cnc2ccc(-c3cnc4[nH]ncc4c3)cc12 [Compound 155A, 2-[[3-morpholinosulfonyl-6-(1H-pyrazolo[3,4-b]pyridin-5-yl)-4-quinolyl]amino]benzoic acid]
8 | > 5 °C |  | Cc1c[nH]c2ncc(-c3ccc4ncc(S(=O)(=O)N5CCOCC5)c(Nc5ccccc5C(=O)O)c4c3)cc12 [Compound 156A, 2-[[6-(3-methyl-TH-pyrrolo[2,3-b]pyridin-5-yl)-3-morpholinosulfonyl-4-quinolyl]amino]benzoic acid]
9 | < 1 °C |  | O=C(O)c1ccccc1Nc1c(S(=O)(=O)N2CCOCC2)cnc2ccc(-c3ccc(N4CCCC4)nc3)cc12 [Compound 157A, 2-[[3-morpholinosulfonyl-6-(6-pyrrolidin-1-yl-3-pyridyl)-4-quinolyl]amino]benzoic acid]
10 | > 5 °C |  | O=C(O)c1ccccc1Nc1c(S(=O)(=O)N2CCOCC2)cnc2ccc(-c3ccnc4[nH]ccc34)cc12 [Compound 159A, 2-[[3-morpholinosulfonyl-6-(1H-pyrrolo[2,3-b]pyridin-4-yl)-4-quinolyl]amino]benzoic acid]
11 | > 5 °C |  | O=C(O)c1ccccc1Nc1c(S(=O)(=O)N2CCOCC2)cnc2ccc(-c3cncc4[nH]ccc34)cc12 [Compound 160A, 2-[[3-morpholinosulfonyl-6-(1H-pyrrolo[2,3-c]pyridin-4-yl)-4-quinolyl]amino]benzoic acid]
12 | < 1 °C |  | Cc1cc(OC(C)C)ncc1-c1ccc2ncc(S(=O)(=O)N3CCOCC3)c(Nc3ccccc3C(=O)O)c2c1 [Compound 161A, 2-[[6-(6-isopropoxy-4-methyl-3-pyridyl)-3-morpholinosulfonyl-4-quinolyl]amino] benzoic acid]
13 | 1 to 5 °C |  | O=C(O)c1ccccc1Nc1c(S(=O)(=O)N2CCOCC2)cnc2ccc(-c3ccc(Oc4ccccc4)nc3)cc12 [Compound 162A, 2-[[3-morpholinosulfonyl-6-(6-phenoxy-3-pyridyl)-4-quinolyl]amino]benzoic acid]
14 | 1 to 5 °C |  | O=C(O)c1ccccc1Nc1c(S(=O)(=O)N2CCOCC2)cnc2ccc(-c3ccc(N4CCOCC4)nc3)cc12 [Compound 163A, 2-[[6-(6-morpholino-3-pyridyl)-3-morpholinosulfonyl-4-quinolyl]amino]benzoic acid]
15 | 1 to 5 °C |  | N#Cc1ccc(-c2ccc3ncc(S(=O)(=O)N4CCOCC4)c(Nc4ccccc4C(=O)O)c3c2)cn1 [Compound 164A, 2-[[6-(6-cyano-3-pyridyl)-3-morpholinosulfonyl-4-quinolyl]amino]benzoic acid]
16 | 1 to 5 °C |  | CN1CCN(c2ccc(-c3ccc4ncc(S(=O)(=O)N5CCOCC5)c(Nc5ccccc5C(=O)O)c4c3)cn2)CC1 [Compound 165A, 2-[[6-[6-(4-methylpiperazin-1-yl)-3-pyridyl]-3-morpholinosulfonyl-4-quinolyl]amino]benzoic acid]
17 | 1 to 5 °C |  | COc1ncc(-c2ccc3ncc(S(=O)(=O)N4CCOCC4)c(Nc4ccccc4C(=O)O)c3c2)cc1N [Compound 166A, 2-[[6-(5-amino-6-methoxy-3-pyridyl)-3-morpholinosulfonyl-4-quinolyl]amino]benzoic acid]
18 | < 1 °C |  | CNC(=O)c1ccc(-c2ccc3ncc(S(=O)(=O)N4CCOCC4)c(Nc4ccccc4C(=O)O)c3c2)cn1 [Compound 167A, 2-[[6-[6-(methylcarbamoyl)-3-pyridyl]-3-morpholinosulfonyl-4-quinolyl]amino]benzoic acid]
19 | 1 to 5 °C |  | O=C(O)c1ccccc1Nc1c(S(=O)(=O)N2CCOCC2)cnc2ccc(-c3cnccc3C(F)(F)F)cc12 [Compound 168A, 2-[[3-morpholinosulfonyl-6-[4-(trifluoromethyl)-3-pyridyl]-4-quinolyl]amino]benzoic acid]
20 | < 1 °C |  | O=C(O)c1ccccc1Nc1c(S(=O)(=O)N2CCOCC2)cnc2ccc(-c3ccnc(N4CCNCC4)c3)cc12 [Compound 169A, 2-[[3-morpholinosulfonyl-6-(2-piperazin-1-yl-4-pyridyl)-4-quinolyl]amino]benzoic acid]
21 | 1 to 5 °C |  | O=C1Cc2ccc(-c3ccc4ncc(S(=O)(=O)N5CCOCC5)c(Nc5ccccc5C(=O)O)c4c3)cc2N1 [Compound 170A, 2-[[3-morpholinosulfonyl-6-(2-oxoindolin-6-yl)-4-quinolyl]amino]benzoic acid]
22 | 1 to 5 °C |  | CNc1ncc2cc(-c3ccc4ncc(S(=O)(=O)N5CCOCC5)c(Nc5ccccc5C(=O)O)c4c3)ccc2n1 [Compound 171A, 2-[[6-[2-(methylamino)quinazolin-6-yl]-3-morpholinosulfonyl-4-quinolyl]amino]benzoic acid]
23 | 1 to 5 °C |  | O=C(O)c1ccccc1Nc1c(S(=O)(=O)N2CCOCC2)cnc2ccc(-c3ccc(S(=O)(=O)N4CCOCC4)cc3)cc12 [Compound 172A, 2-[[3-morpholinosulfonyl-6-(4-morpholinosulfonylphenyl)-4-quinolyl]amino]benzoic acid]
24 | 1 to 5 °C |  | O=C(O)c1ccc(-c2ccc3ncc(S(=O)(=O)N4CCOCC4)c(Nc4ccccc4C(=O)O)c3c2)cc1 [Compound 173A, 2-[[6-(4-carboxyphenyl)-3-morpholinosulfonyl-4-quinolyl]amino]benzoic acid]
25 | < 1 °C |  | CCN(CC)C(=O)c1ccc(-c2ccc3ncc(S(=O)(=O)N4CCOCC4)c(Nc4ccccc4C(=O)O)c3c2)cc1 [Compound 174A, 2-[[6-[4-(diethylcarbamoyl)phenyl]-3-morpholinosulfonyl-4-quinolyl]amino]benzoic acid]
26 | > 5 °C |  | O=C(O)c1ccccc1Nc1c(S(=O)(=O)N2CCOCC2)cnc2ccc(-c3ccc4c(c3)OCO4)cc12 [Compound 175A, 2-[[6-(1,3-benzodioxol-5-yl)-3-morpholinosulfonyl-4-quinolyl]amino]benzoic acid]
27 |  | < 1 °C | Cc1cc(OCc2ccccc2)ccc1-c1ccc2ncc(S(=O)(=O)N3CCOCC3)c(Nc3ccccc3C(=O)O)c2c1 [Compound 176A, 2-[[6-(4-benzyloxy-2-methyl-phenyl)-3-morpholinosulfonyl-4-quinolyl]amino]benzoic acid]
